Assays:
[1] = system: human epidermal keratinocytes; assay: Anti-free radical activity: hydroperoxides by fluorometry in UVA-irradiated keratinocytes; assay type: cell-based; details: Keratinocyte, light or radiation study, 1.5 h, 0.1% (w/v), UVA 90 minutes (10 J/cm^2), read-out: % protection
Source text: The cells are human epidermal keratinocytes. […] The cells are used at the sixth passage, they are inoculated at 1×10^5 cells per well into 6-well culture plates. They are used at confluence.
It is quantified by a fluorometric method which detects the quantity of hydroperoxides which are metabolites of free radicals. An appropriate probe which converts to a fluorescent derivative in their presence is used, according to the method described by Keston A. S. and Brandt R. (The fluorometric analysis of ultramicro quantities of hydrogen peroxide, Anal. Biochem. 11, 1965, 1-5).
The free radicals are generated at the cell culture level by irradiation with ultraviolet A rays. […]
After irradiation, the keratinocytes are lyzed by the action of ultrasound. The cellular lysates are transferred into 96-well plates and analyzed by fluorimetry with the aid of a plate analyzer (excitation: 355 nm, emission: 460 nm).
The results are expressed in fluorescence unit/culture well.
The percentage protection of the test products or of the reference products R1 and R2 was calculated with the aid of the following formula: [formula]
By convention, when the values measured in the presence of the test products or in the presence of the reference products were less than those of the "non-irradiated control", the percentage protection was expressed as 100%.

[2] = system: plasmid DNA (pBS); assay: 3-D test: protection of adsorbed plasmid DNA against singlet oxygen generated by illuminated methylene blue; assay type: biochemical; details: for % Specific inhibition: methylene blue + light; for % Aspecific inhibition: on predamaged plasmid pBS^UV, absence of ROS
Source text: The test used is a biological system of detecting damage (3-D test) on DNA captured on a microplate (Analytical Biochemistry, 1995, 232, 37-42). The damage is recognized by the repair enzymes and repaired by purified cellular extracts. The repair of the lesions involves a phase for excision and then resynthesis of the damaged and excised DNA fragment. During the reparative synthesis stage, one or more modified nucleotides (digoxigenylated dUTP or DIG-11-dUTP) are incorporated into the DNA. These nucleotides are then recognized by anti-DIG antibodies coupled to alkaline phosphatase. An alkaline phosphatase substrate (Lumi-Phos 530) is then added and the luminescent signal emitted is measured by a luminometer (Lumax 2, marketed by the company S.F.R.I.). The intensity of the signal obtained depends on the different parameters (extracts, salt concentration, quantity of DNA, reaction time and the like) including that relating to the number of lesions repaired, and therefore of lesions present on the DNA. A dose-response relationship is observed within the limit of 1 to 15 lesions per 6 kilobases for most of the lesions.
This system is capable of repairing any type of lesion since all the enzymes for repairing DNA lesions are present and active in the extracts. The oxidative damage is therefore recognized in this system.
The damage is caused by reactive oxygen species (ROS) by means of a system which induces the formation of lesions on the DNA adsorbed in a well, leading to the reading of a reparative synthesis signal. In the presence of a compound or of a mixture of compounds which make it possible to protect DNA as a result, for example, of antioxidant or anti-free radical properties, a decrease or even an elimination of the repair signal, a reflection of the quantity of lesions, is observed.
ROS ^1 O2, a powerful electrophile which has a very short life, is generated by illumination of methylene blue. It therefore reacts very rapidly with the bases in the DNA and produces various types of damage such as modification of bases or loss of bases, which are very genotoxic.
Ultrapurified plasmid DNA (pBS) (predominantly supercoiled form) is placed in contact with the wells sensitized by poly-lysine for 30 minutes at 30° C., with gentle shaking, at a concentration of 1 μg/ml in a volume of 50 μl. Under these conditions, the adsorption of the DNA is quantitative (about 40 ng per well).
A positive control for repair, consisting of a plasmid predamaged by UV-C (called pBS^UV), is added.
After incubation, the wells are washed twice with a solution of PBS supplemented with 0.1% Tween 20.
A stock solution of methylene blue at 10 μg/ml is diluted to a concentration of 4 ng/ml in ultrapure water (MilliQ quality from Millipore).
This solution is mixed in an equal volume with various dilutions of the samples, and 50 μl of the mixture (at 2 ng/ml of methylene blue) are added to the wells containing the adsorbed plasmid DNA. The wells are placed on ice and illuminated for 20 minutes with 2 lamps of 100 W, 30 cm apart.
The four samples were tested at 3 dilutions.
The dilutions were made 2X, in propylene glycol, in order to obtain the desired dilutions after addition of a volume of methylene blue solution of 4 ng/ml.
In order to check that the decrease in the repair signal is not aspecific, the same dilutions (IX) are incubated under the same conditions on pBS^UV. […] An inhibition of the control repair signal for pBS^UV can, for example, be explained by a direct interaction of the sample with the DNA which blocks access of the lesions to the repair enzymes.
These different dilutions were incubated on the nondamaged DNA (pBS) and illuminated in the absence of methylene blue. This test makes it possible to check that the product tested is not genotoxic.
They are expressed as the percentage residual repair inhibition. The 0% value corresponds to the repair signal under the condition of methylene blue treatment alone. […]

[3] = target: T1, pancreatic elastase (Sus scrofa, UniProt P00772); assay: Antielastase activity in sections of human skin explant (intact elastic fibers, image analysis); assay type: biochemical; details: for % Inhibition of the elastase activity: elastase 5 IU/ml, 3 hours, 37° C.; for Inhibition (of elastase, graded 0 to +++): Table 8
T1 construct: purchased Sigma E0258
Source text: The study of the antielastase activity represents a good indication of skin aging since it is now well known that the degradation of the elastic fibers present in the dermis involves endogenous elastases. The test used makes it possible to study the antielastase activity in vitro in sections of human skin explant. An application of purified elastase on a limited portion of the section is accompanied by degradation of the endogenous elastic fibers. The elastic fibers are stained with (+)-catechin. The percentage of intact elastic fibers per optical field is evaluated by image analysis. A product having antielastase activity makes it possible to preserve the integrity of the elastic fibers in the presence of purified elastase.
A pancreatic elastase (type IV, reference E0258, Sigma) is used. The medium for incubation of the human skin sections ("vehicle") is 0.1 M Herpes buffer, adjusted to pH 7.5 with sodium hydroxide containing 0.1 M sodium chloride.
The skin sections are produced from surgical waste collected after abdominal plastic surgery. The donor was a person. Explants of 1 cm in diameter are produced and they are deposited on a cork support and they are frozen at -80° C. Transverse sections 6 µm thick are produced with a cryomicrotome. The sections are fixed on glass slides and maintained hydrated with the vehicle during the test.
The test products are tested at 0.5; 1 and 5% (v/v) in the vehicle.
The elastatinal is tested at 0.01 and 0.1% (w/v) in the vehicle.
The mercuric chloride is tested at 0.025 and 0.125% (w/v) in the vehicle.
The dilutions of the test products and of the reference products are deposited on the skin sections in an amount of 100 μl per section (0.32 cm^2 in surface area), and preincubated for ten minutes at 37° C. Filter paper strips (0.16 cm^2 in surface area) impregnated with the vehicle alone (control vehicle) or containing pancreatic elastase at 5 international units (IU)/ml (control enzyme) are deposited on the sections. The slides are placed in a humid chamber at 37° C. for three hours.
After incubation, the sections are rinsed with the incubation medium and stained with (+)-catechin. The activity of the enzyme in the absence and in the presence of the test products or of the reference products is evaluated by image analysis: the image of the stained sections is digitized on a video screen; a software for image analysis makes it possible to measure the amounts of gray in the binary images; the surface area occupied by the intact elastic fibers is measured. The results are expressed as percentage of intact elastic fibers per optical field.
The percentage inhibition of the elastase activity of the test products and of the reference products is calculated with the aid of the following formula: [formula]
The antielastase activity is determined under the conditions indicated in IV above.

T1 sequence (P00772 27-266): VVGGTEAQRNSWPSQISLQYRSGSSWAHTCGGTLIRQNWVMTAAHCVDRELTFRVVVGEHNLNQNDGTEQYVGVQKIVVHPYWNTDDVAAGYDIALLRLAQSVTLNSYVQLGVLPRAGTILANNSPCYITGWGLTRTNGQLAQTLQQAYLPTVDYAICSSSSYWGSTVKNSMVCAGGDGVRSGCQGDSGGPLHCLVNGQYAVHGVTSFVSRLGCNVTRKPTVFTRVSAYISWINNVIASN

SMILES	% Specific inhibition ([2]; 0.01%)	% Aspecific inhibition ([2]; 0.01%)	protective properties on DNA towards singlet oxygen (in words) ([2]; 0.01 to 1%)	% Specific inhibition ([2]; 0.1%)	% Aspecific inhibition ([2]; 0.1%)	% Specific inhibition ([2]; 1%)	% Aspecific inhibition ([2]; 1%)	also measured
CC(=O)Oc1c(C)c(C)c2c(c1C)CCC(C)(CCCC(C)CCCC(C)CCCC(C)C)O2 (centres unmarked) [Vitamin E acetate, vitamin E acetate]	–	–	–	–	–	–	–	inhibition at 0.1 % [1]: 65%
CC1=C(/C=C/C(C)=C/C=C/C(C)=C/C=C/C=C(C)/C=C/C=C(C)/C=C/C2=C(C)CCCC2(C)C)C(C)(C)CCC1 [Control, β-carotene]	45%	0%	does not exhibit a dose-effect	53%	+2%	45%	0%	aspecific effect / aspecificity (in words) ([2]; 0.01 to 1%): does not show, on the other hand, aspecificity
[Cl][Hg][Cl] [Mercuric chloride, mercuric chloride]	–	–	–	–	–	–	–	% Inhibition of the elastase activity ([3]; 0.025% (w/v)): 18.4%; % Inhibition of the elastase activity ([3]; 0.025% (w/v), listed as mercuric chloride): 18%; % Inhibition of the elastase activity ([3]; 0.125% (w/v)): 39.3%; % Inhibition of the elastase activity ([3]; 0.125% (w/v), listed as mercuric chloride): 39%; Inhibition (of elastase, graded 0 to +++) ([3]; 0.125% (w/v)): strongly inhibits
CC(C)C[C@H](NC(=O)N[C@H](C(=O)N[C@@H](CCC(N)=O)C(=O)N[C@@H](C)C=O)[C@@H]1CCNC(=N)N1)C(=O)O [Elastatinal, elastatinal]	–	–	–	–	–	–	–	% Inhibition of the elastase activity ([3]; 0.01% (w/v)): 71.5%; % Inhibition of the elastase activity ([3]; 0.01% (w/v), listed as elastatinal): 71%; % Inhibition of the elastase activity ([3]; 0.1% (w/v)): 59.9%; % Inhibition of the elastase activity ([3]; 0.1% (w/v), listed as elastatinal): 60%; Inhibition (of elastase, graded 0 to +++) ([3]; 0.1% (w/v)): strongly inhibits
CC(O)CO (centres unmarked) [Propylene glycol, propylene glycol]	0%	2%	only very weak protective properties	6%	6%	13%	7%	–
